Results from article PMC6478719 (Communications Biology, 2019).
Read-outs that look alike come from different tables or passages of the source.

Target: T1, Olfr73 (Mus musculus, UniProt Q920P2)
T1 construct: expressed in transfected cells; host or cells: Hana3A cells (HEK293T-derived), co-transfected with pRTP1S and pCRE-SEAP
T1 sequence (Q920P2 1-313): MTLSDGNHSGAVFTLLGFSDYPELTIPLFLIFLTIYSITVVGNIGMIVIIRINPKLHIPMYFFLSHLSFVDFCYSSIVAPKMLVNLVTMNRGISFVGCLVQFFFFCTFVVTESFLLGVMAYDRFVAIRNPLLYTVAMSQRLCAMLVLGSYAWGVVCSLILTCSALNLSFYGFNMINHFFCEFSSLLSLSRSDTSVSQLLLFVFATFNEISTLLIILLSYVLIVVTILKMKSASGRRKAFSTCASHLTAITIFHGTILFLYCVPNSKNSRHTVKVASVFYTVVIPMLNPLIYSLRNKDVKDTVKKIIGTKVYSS
Test: SEAP reporter assay (cAMP signalling) of Olfr73 activation in Hana3A cells
Format: cell-based
Description: As described in detail elsewhere[16],[45],[47] HEK293T-derived Hana3A cells (provided by Prof. Matsunami, Duke University, USA) were grown in DMEM/F12 medium (Invitrogen, Netherlands) supplemented with 10% fetal calf serum (FCS) (Invitrogen, Netherlands), maintained under selective conditions with 1 μg/ml of puromycin (Sigma, Switzerland) and kept in the incubator at 37 °C and 5% CO2. Cells were transfected with plasmid DNA using Lipofectamine 2000 (Invitrogen, Netherlands).
The assays were performed as described in detail elsewhere[16],[45],[47] twenty hours before transfection Hana3A cells were seeded into 96 wells (Greiner, Germany) at a concentration of 3.5 × 10^6 cells per ml of medium. 75 ng of pRTP1S, 150 ng of the cAMP response element fused to the secreted alkaline phosphatase (pCRE-SEAP)[89] and either 75 ng of pOlfr73[47] or 75 ng of calf thymus DNA, used as a control, were co-transfected. Compounds to be tested (Sigma, Switzerland) were diluted in DMEM/F12 without FCS and added to the cells 7 h after transfection. Cells were incubated for 16 h at 37 °C in the incubator. For the SEAP reporter assay, the culture medium was mixed with an equal volume of 1 M diethanolamine-bicarbonate, pH 9.8, containing 20 mM para-nitrophenyl-phosphate (pNPP) (Sigma, Switzerland) and 1 mM MgCl2 (Sigma, Switzerland). Absorbance was measured at 410 nm using a multiwell absorbance plate reader (Molecular Devices, USA) at 1- to 4-min intervals for a period of 5 min to determine SEAP expression dependent pNPP hydrolysis rates (A410 /min). EC50 values were determined from dose-response curves fitting experimental data with the Hill equation using IGOR Pro software (WaveMetrics):
fx=f(max)/1+EC50/x^n f(x) is the background-corrected response signal at concentration x of the investigated ligand, f(max) the maximal, background-corrected amplitude of the response signal, EC50 the half maximal effective ligand concentration, and n the Hill coefficient. Experiments were performed in triplicate.

[1] = Fig. 4, newly found agonists A1-A17, read-out: EC50 (in brackets, Fig. 4)
[2] = Supplementary Table 2, cellular assays, triplicate, n.a. = no active response, read-out: EC50
[3] = EC50 (in brackets, Fig. 4), Fig. 4, newly found agonists A1-A17
[4] = EC50 (μM), Supplementary Table 2, cellular assays, triplicate, n.a. = no active response

EC50 [2] [µM] | Compound | EC50 [4] [µM] | other results
16 ± 1.5 | CC(=O)c1cc(C)c(O)cc1C [A2, 2’,5’-dimethyl -4’hydroxyacetophenone] |  | 
88.4 ± 1.3 | COc1cc2c(cc1OC)CCCC2 [A7, 6,7-dimethoxy-1,2,3,4-tetrahydronaphthalene] |  | EC50 [1]: 88 µM
120 ± 1 | COc1cc2ccccc2cc1OC [A10, 2,3-dimethoxynaphthalene] |  | 
193 ± 3 | C/C=C/c1ccc(OCC)c(OC)c1 [A11, isoeugenylethylether] |  | 
250 ± 3 | CC(=O)c1cc(C)c(O)c(C)c1 [A13, 4-hydroxy-3,5-dimethylacetophenone] |  | 
627 ± 62 | CC(C)=C[C@H]1C[C@H](C)CCO1 [A17, (2R,4R)-4-methyl-2-(2-methylprop-1-en-1-yl)-tetrahydro-2H-pyran] |  | 

Continued, molecule first:

Compound | EC50 [2] [µM] | EC50 [4] [µM] | other results
CC(C)Cc1ccc(O)cc1 [A1, p-isobutylphenol] | 12.9 ± 0.9 |  | EC50 [1]: 13 µM; agonist activity at Olfr73 (SEAP signal) (Hana3A cells, compounds predicted from virtual screening): most potent ligand
Oc1ccc(C2CCCCC2)cc1 [A3, 4-cydohexyl-phenol] |  | 50.8 ± 0.5 | EC50 [3]: 51 µM
COc1cc(C(C)(C)C)ccc1O [A4, 4-tert-butyl-2-methoxyphenol] | 55.6 ± 0.7 |  | EC50 [1]: 56 µM
CCCc1ccc(O)c(OC)c1 [A5, dihydroeugenol] |  | 61 ± 6.9 | 
CCCCCC1CCC(=O)CC1 [A6, 4-pentylcyclohexanone] | 63.1 ± 1.5 |  | EC50 [1]: 63 µM
CC/C=C/c1ccc(OC)c(OC)c1 [A8, (E)-4-(but-1-en-1-yl)-1,2-dimethoxybenzene] |  | 92.5 ± 0.9 | EC50 [3]: 93 µM
C=CCc1cc(C(C)=O)ccc1O [A9, 1-(3-allyl-4-hydroxyphenyl)-ethanone] |  | 96.9 ± 1.7 | EC50 [3]: 97 µM
CCC(=O)c1ccc(O)cc1 [A15, 4-hydroxypropiophenone] | 502 ± 315 |  | 
CCOC(=O)c1ccc(O)c(OC)c1 [A16, ethylvanillate] |  | 505 ± 109 | 
